Test system: skin
Conditions: for Rating: 5% sample applied to skin, scale of 1 to 5, 1 being poor and 5 being best
Description: The effect of moisturization can be measured by the appearance of the skin when treated. Untreated skin that is in need of moisturization is rough, scaly and dry looking under the dissection microscope. The application of the moisturization solution to the skin and its effect upon minimizing roughness, scaling and dry appearance is a good measure of moisturization. We performed such an evaluation and rated the performance of a scale of 1 to 5.1 being poor and 5 being best.

SMILES | Rating | moisturization effect in words (applied to rough dry skin)
OCC(O)CO [Glycerin] | 2 | 
C[N+](C)(CCO)CC(O)CO.[Cl-] (stereo not shown) [Example 3] | 5 | very effective moisturization agent
C[N+](C)(C)CCO [Choline] | 4 | 
